Measured values: patent publication US8569327B2, “Phenanthroindolizidine derivative and NFκB inhibitor containing same as active ingredient” (Kabushiki Kaisha Yakult Honsha, priority 2008, dated 2013)

Columns and labels:
[1] = system: human colon cancer SW480 cells; assay: Inhibitory action on the proliferation of SW480 cells; format: cell-based; settings: 48 hours, TetraColor ONE; for IC50: Homo sapiens, SW480
Experimental: (§1) The action of the phenanthroindolizidine alkaloid compound of the present invention on the proliferation of human colon cancer SW480 cells, HT-29 cells, and human non-small cell lung cancer A549 cells was studied. The SW480 cells were suspended in a 10% FBS/RPMI1640 and then seeded in a 96-well microplate, followed by culturing in 5% CO2 at 37° C. (2000 cells/well). The A549 cells and the HT-29 cells were each suspended in a DMEM medium containing 10% FBS, 100 U/mL penicillin, and 100 μg/mL streptomycin (10% FBS/DMEM) and a DMEM F-12 HAM medium containing 10% FBS, 100 U/mL penicillin, and 100 μg/mL streptomycin (10% FBS/DMEM F12 HAM), and then seeded in 96-well microplates, followed by culturing in 5% CO2 at 37° C. (1000 cells/well). After an overnight culture, the compound of the present invention was added, followed by further culturing for 48 hours (SW480 cells) and 96 hours (A549 cells and HT-29 cells). After culturing, the number of viable cells was counted using TetraColor ONE (Seikagaku Corporation) in accordance with the attached operating procedure. The results were expressed as the concentration of a test compound needed for 50% inhibition of the proliferation of the cells (IC50).

[2] = system: mice transplanted with mouse fibrosarcoma Meth A cells; assay: Animal toxicity test; format: in vivo; settings: intravenous days 1, 5, 9, observed three weeks
Experimental: Also, the toxicity of known phenanthroindolizidine alkaloid compounds, namely (12aS,13S)-6,7-dimethoxy-9,10,11,12,12a,13-hexahydro-9a-aza-cyclopenta[b]triphenylene-3,13-diol (known compound 1; refer to WO01/023384) and (12aS,13S)-3,6,7-trimethoxy-9,10,11,12,12a,13-hexahydro-9a-aza-cyclopenta[b]triphenylene-13-ol (known compound 2; refer to Planta Med., 2002, 68: 186-188), was simultaneously studied. To a control group, a physiological saline solution, a solvent, was administered. As a result, as shown in the following Tables 35 and 36, all the mice survived in a group administered with the compound of the present invention.

[3] = system: human colon cancer HT-29 cells; assay: Inhibitory action on the proliferation of HT-29 cells; format: cell-based; settings: 96 hours, TetraColor ONE; for IC50: Homo sapiens, HT-29
Experimental: as §1

[4] = system: SV40 promoter; assay: SV40 promoter activity, luciferase assay in SW480/SV40-Luc cells; format: cell-based, human; settings: for IC50: Homo sapiens, SW480, read-out: SV40 promoter inhibitory activity IC50; for SV40 promoter inhibitory activity IC50: SW480/SV40-Luc cells, luciferase
From the text: (§2) The action of the phenanthroindolizidine alkaloid compound of the present invention on the NFκB activity was studied using a luciferase assay. Human colon cancer SW480 cells were transfected with pNFκB-Luc Plasmid (Stratagene), which is a reporter vector in which a five-time tandem repeat of the NFκB responsive element (NRE) is integrated into the upstream of the luciferase gene, using Lipofectamine 2000 (Invitrogen Corporation) in accordance with the attached operating procedure. Subsequently, the cells were cultured in an RPMI1640 medium containing 10% FBS, 100 U/mL penicillin, 100 μg/mL streptomycin, and 0.5 mg/mL G418 to produce SW480 cells having the luciferase gene, the expression of which is regulated by NRE, stably introduced therein (SW480/NRE-Luc cells). Likewise, SW480 cells were transfected with pGL3-Control Vector (Promega Corporation), which is a reporter vector in which the SV40 promoter is integrated into the upstream of the luciferase gene, to produce SW480 cells having the luciferase gene, the expression of which is regulated by the SV40 promoter, stably introduced therein (SW480/SV40-Luc cells). The SW480/NRE-Luc cells or the SW480/SV40-Luc cells were suspended in an RPMI1640 medium containing 10% FBS, 100 U/mL penicillin, and 100 μg/mL streptomycin (10% FBS/RPMI1640), and then seeded in a 96-well microplate, followed by culturing under conditions of 5% CO2 and at 37° C. (5000 cells/well). After an overnight culture, the compound of the present invention was added, followed by culturing for one hour. Further, 50 ng/mL TNFα (Sigma-Aldrich Corporation) was added, followed by culturing for four hours. Subsequently, a Steady-Glo Luciferase Assay reagent (Promega Corporation) was added, and the luminescent intensity was detected by SpectraMax M5e (Molecular Devices, Inc.) to measure the intracellular luciferase activity. It is to be noted that the action of the compound of the present invention on the NFκB activity or the SV40 promoter activity was shown as IC50 values (the concentration of a test compound needed for 50% inhibition of the induction of the luciferase expression).

[5] = system: NFκB; assay: Inhibitory action on the NFκB activity, luciferase assay in SW480/NRE-Luc cells; format: cell-based, human; settings: for IC50: Homo sapiens, SW480, read-out: NFκB inhibitory activity IC50; for NFκB inhibitory activity IC50: SW480/NRE-Luc cells, compound 1 h then 50 ng/mL TNFα 4 h, luciferase
From the text: as §2

[6] = system: human non-small cell lung cancer A549 cells; assay: Inhibitory action on the proliferation of A549 cells; format: cell-based; settings: 96 hours, TetraColor ONE; for IC50: Homo sapiens, A549
Experimental: as §1

Compound | IC50 [1] [µg/mL] | Mortality rate ([2]; total dose 25 mg/kg) | Mortality rate ([2]; total dose 50 mg/kg) | IC50 [3] [µg/mL] | IC50 [4] [µg/mL] | IC50 [5] [µg/mL] | IC50 [6] [µg/mL] | SW480 proliferation inhibitory action IC50 [1] [ng/mL] | HT-29 proliferation inhibitory action IC50 [3] [ng/mL] | SV40 promoter inhibitory activity IC50 [4] [ng/mL] | NFκB inhibitory activity IC50 [5] [ng/mL] | A549 proliferation inhibitory action IC50 [6] [ng/mL] | further results
COc1cc2c3c(c4ccccc4c2cc1OC)[C@@H](O)[C@H]1CCCN1C3.Cl [Compound 2, (12aR,13R)-6,7-dimethoxy-9,10,11,12,12a,13-hexahydro-9a-aza-cyclopenta[b]triphenylene-13-ol hydrochloride] | 1.02 | 0/5 | 0/5 | 0.204 | > 10 | 0.387 | 0.211 | – | – | – | – | – | –
CCc1ccc2c3c(c4cc(OC)c(OC)cc4c2c1)CN1CCC[C@@H]1[C@@H]3O.Cl [Compound 4, (12aR,13R)-3-ethyl-6,7-dimethoxy-9,10,11,12,12a,13-hexahydro-9a-aza-cyclopenta[b]triphenylene-13-ol hydrochloride] | 0.513 | 0/5 | 0/5 | 0.121 | > 10 | 0.201 | 0.101 | – | – | – | – | – | –
COc1cc2c3c(c4ccc(F)cc4c2cc1OC)[C@@H](O)[C@H]1CCCN1C3.Cl [Compound 6, (12aR,13R)-3-fluoro-6,7-dimethoxy-9,10,11,12,12a,13-hexahydro-9a-aza-cyclopenta[b]triphenylene-13-ol hydrochloride] | 0.567 | 0/5 | 0/5 | 0.0388 | > 10 | 0.166 | 0.0341 | – | – | – | – | – | –
COc1cc2c3c(c4ccc(OC(C)=O)cc4c2cc1OC)[C@H](O)[C@@H]1CCCN1C3.Cl [Compound 7, acetic acid(12aS,13S)-13-hydroxy-6,7-dimethoxy-9,10,11,12,12a,13-hexahydro-9a-aza-cyclopenta[b]triphenylene-3-yl ester hydrochloride] | – | 0/5 | 0/5 | – | – | – | – | 0.41 | 0.080 | >100 | 0.25 | 0.63 | –
COc1cc2c3c(c4ccc(OC(C)=O)cc4c2cc1OC)[C@H](OC(C)=O)[C@@H]1CCCN1C3.Cl [Compound 8, acetic acid(12aS,13S)-3-acetoxy-6,7-dimethoxy-9,10,11,12,12a,13-hexahydro-9a-aza-cyclopenta[b]triphenylene-13-yl ester hydrochloride] | – | 0/5 | 0/5 | – | – | – | – | 17.0 | 5.8 | >1000 | 63.2 | 1.5 | –
COc1ccc2c3c(c4cc(OC)c(OC)cc4c2c1)CN1CCC[C@H]1[C@H]3O [Known Compound 2, (12aS,13S)-3,6,7-trimethoxy-9,10,11,12,12a,13-hexahydro-9a-aza-cyclopenta[b]triphenylene-13-ol, reference compound] | – | – | – | – | – | – | – | – | – | – | – | – | Mortality rate ([2]; total dose 25 mg/kg, 25 mg/kg): 2/5; Mortality rate ([2]; total dose 25 mg/kg, listed as known compound 2, 25 mg/kg): some of the mice also died; Mortality rate ([2]; total dose 50 mg/kg, 50 mg/kg): 5/5; Mortality rate ([2]; total dose 50 mg/kg, listed as known compound 2, 50 mg/kg): all the mice died
COc1cc2c3c(c4ccc(O)cc4c2cc1OC)[C@H](O)[C@@H]1CCCN1C3 [Known compound 1, (12aS,13S)-6,7-dimethoxy-9,10,11,12,12a,13-hexahydro-9a-aza-cyclopenta[b]triphenylene-3,13-diol, reference compound] | – | 0/5 | – | – | – | – | – | – | – | – | – | – | Mortality rate ([2]; total dose 50 mg/kg, 50 mg/kg): 5/5; Mortality rate ([2]; total dose 50 mg/kg, listed as known compound 1, 50 mg/kg): all the mice died
benzhydryl-((S)-6,7-dimethoxy-3-pyrrolidine-9,10,11,12,12a,13-hexahydro-9a-aza-cyclopenta[b]triphenylene-3-yl)-amine methanesulfonate [Compound 58] | – | – | – | – | – | – | – | 42.3 | 52.2 | >10000 | 16.2 | 20.7 | –
